Source: patent US20140066381A1, “NOVEL PEPTIDES THAT ARE MODULATORS OF THE PROTEIN TRF2 AND COMPOSITIONS CONTAINING SAME” (ISP INVESTMENTS INC., priority 2011, published 2014)
Ends that are not written are not given here.

Experiments:
Format in all cases: cell-based
[1] = tested on: Human skin biopsies; experiment: Human skin biopsies rendered senescent in vitro using methylglyoxal, H&E morphology
Protocol: Human skin biopsies are rendered artificially senescent in vitro, by means of a treatment with methylglyoxal (MGO). For this, des punch de 6-mm human skin punch biopsies are incubated at the air-liquid interface in a specific culture medium. They are then treated with 5 mM or 10 mM of MGO (Sigma) deposited at the surface of the biopsies and in the culture medium. The biopsies are then treated with: • condition 1: 20 μL of PBS 1×, or • condition 2: 20 μL of peptide SEQ ID NO: 4 at 1%, or • condition 3: 20 μL of peptide SEQ ID NO: 4 at 3%.
The biopsies are fixed and embedded in paraffin, and are then cut into 4-μm sections using a microtome. Hematoxyline/eosine (H&E) immunolabeling is performed on the sections previously cut and their morphology and structure are studied by microscopic observation (under a microscope Nikon Eclipse E600, objective 40×).

[2] = tested on: TRF2 protein; experiment: TRF2 protein expression by Western Blot in human fibroblasts with or without TRF2 siRNA; conditions: 72 h
Protocol: To quantify the efficacy of a peptide compound according to the invention, on the overexpression of TRF2 in a human fibroblast population, the gene coding for TRF2 was “turned off” by using the siRNA technique.
Fibroblast cells are placed in culture in a 6-well plate until 60% confluence. The culture medium is renewed by adding the peptide SEQ ID NO: 2 at 1% under the conditions described below. Then, 100 μL of a mixture previously produced containing, in the end, 10 nM of TRF2 siRNA and the transfection agent are gently added, one drop at a time, and one well at a time. The cell culture plate is incubated at 37° C. and 5% in CO2 for 72 h. The culture medium is renewed every 2 days. Four conditions were established: • condition 1: control without siRNA and without active agent • condition 2: cells transfected with the siRNA, without active agent • condition 3: cells not transfected but treated with the active agent • condition 4: cells transfected with the siRNA and treated with the active agent
The quantification of the TRF2 expression is observed by the classic immunotransfer technique (Western Blot) performed with an anti-TRF2 antibody and according to a classic protocol. […]

[3] = tested on: vimentin; experiment: Vimentin immunofluorescence detection in fibroblasts aged by replicative senescence; conditions: human fibroblasts, daily application of peptide at 1% or 3%, more than 17 passages, immunofluorescence at passages 6 and 17
Protocol: Human fibroblasts are placed in culture in a specific medium and kept in culture for a long treatment (for more than 17 passages), by means of a daily application of the peptide SEQ ID NO: 2 at a concentration of 1% or of 3%. A vimentin immunofluorescence detection experiment is performed on the cells in culture passages 6 and 17. The cells are then washed with PBS, fixed with 3.7% formaldehyde for 10 minutes, permeabilized by means of 0.2% Triton X-100 for 10 minutes (Fisher Chemical) and incubated with 1% BSA (Euromedex) for 15 minutes. An anti-vimentin antibody (Tebu Santa Cruz) is then added and incubated at a dilution of 1/200 for 2 h at room temperature. After washing with PBS, a Donkey anti-mouse IgG antibody, conjugated with a marker ALEXA FLUOR® 488, is added at a dilution of 1/1000 and incubated for one hour at room temperature. Finally, the sections are mounted with Fluoromount G (Electron Microscopy Science) and examined under a microscope (Nikon Eclipse 80i, enlargement 40×).

Row | Substance | damage inflicted on the structures of the biopsies vs control conditions ([1]; 6-mm human skin punch biopsies, 5 mM or 10 mM MGO, 20 μL of peptide at 1% or 3%, H&E) | protective effect of the peptide, 3% dose vs 1% dose ([1]; human skin biopsies treated with MGO, 20 μL of peptide at 1% vs 3%) | increase in the expression of the TRF2 protein with respect to the control ([2]; condition 3 vs condition 1: cells not transfected, peptide at 1%, Western Blot) | reduction in TRF2 expression with respect to the control condition ([2]; condition 4 vs condition 1: cells transfected with 10 nM TRF2 siRNA and treated with peptide at 1%) | vimentin expression in aged fibroblasts, treated vs not treated [3]
1 | Ala-Met-Lys-Lys-Gln-Lys-Trp-NH2 (AMKKQKW-NH2) [SEQ ID NO: 4] | much less significant | dose-dependent | – | – | –
2 | Lys-Lys-Gln-Lys-Trp-NH2 (KKQKW-NH2) [SEQ ID NO: 2] | – | – | 17% | no more than 18% | express less vimentin
